In the supplement of paper PMC11208160:

Assay: recombinant UMI read abundance after kanamycin selection (control-corrected) (log10(CPM+1)); higher = more efficient recombination; extreme values may be limits of the assay; sequences stand for … in AGTGCAGAGAAAATCGGCCAGTTTTCTCTGCCTGCAGTCCGCATGCCGTGGGACCCCTTGGGTTCTAACCTGTTGCCTAGATTTATGCAGCGGACTGCCTTTCTCCCAAAGTGATAAACCGG…AGGTTGGTTTCACT; site = the 11-nt donor
Procedure: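 Pooled E. coli donor-specificity screen for the IS621 bridge recombinase. Each library member carries a reprogrammed 11-nt donor and a full-length LE bridge RNA expressed in cis from the natural promoter, with a paired donor-binding loop (8-nt LDG + 4-nt RDG) and a target-binding loop fixed to T5. It is co-electroporated with a T5 target plasmid; recombinase is induced with 0.07 mM IPTG and recombinants are selected on kanamycin. UMIs are counted as CPM, averaged over two biological replicates and corrected by the unselected control. Molecule = full bridge RNA written as DNA, built from the T5 scaffold: LDG = donor specificity nt 1-8, RDG = reverse complement of nt 8-11.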
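Note: IS621 bridge recombinase in Escherichia coli cells against a fixed T5 target plasmid.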

| Sequence | recombinant UMI read abundance (log10) |
| --- | --- |
| AATGTGTCATGGACCGGTTTTCCCGGTAATCCGTATTTGCC (site AATGTGTCTGA) | 0 |
| AATGTGTCATGGACCGGTTTTCCCGGTAATCCGTATTTGCC (site AATGTGTCTGC) | 0 |
| AATGTGTCATGGACCGGTTTTCCCGGTAATCCGTATTTGCC (site AATGTGTCTGG) | 2.81 |
| AATGTGTCATGGACCGGTTTTCCCGGTAATCCGTATTTGCC (site AATGTGTCTGT) | 2.16 |
| AATGTTACATGGACCGGTTTTCCCGGTAATCCGTATTTGCT (site AATGTAACTAG) | 1.05 |
| AATGTTACATGGACCGGTTTTCCCGGTAATCCGTATTTGCT (site AATGTCACTAG) | 1.13 |
| AATGTTACATGGACCGGTTTTCCCGGTAATCCGTATTTGCT (site AATGTGACTAG) | 0.00476 |
| AATGTTACATGGACCGGTTTTCCCGGTAATCCGTATTTGCT (site AATGTTACTAG) | 2.3 |
| AATTAAGCATGGACCGGTTTTCCCGGTAATCCGTATTTGGA (site AATTAAGCTTC) | 0.894 |
| AATTAAGCATGGACCGGTTTTCCCGGTAATCCGTATTTGGA (site AATTACGCTTC) | 0.395 |
| AATTAAGCATGGACCGGTTTTCCCGGTAATCCGTATTTGGA (site AATTAGGCTTC) | 0.648 |
| AATTAAGCATGGACCGGTTTTCCCGGTAATCCGTATTTGGA (site AATTATGCTTC) | 0.412 |
| AATTATCCATGGACCGGTTTTCCCGGTAATCCGTATTTGCT (site AATTATCCTAG) | 0.673 |
| AATTATCCATGGACCGGTTTTCCCGGTAATCCGTATTTGCT (site CATTATCCTAG) | 0.041 |
| AATTATCCATGGACCGGTTTTCCCGGTAATCCGTATTTGCT (site GATTATCCTAG) | 0.232 |
| AATTATCCATGGACCGGTTTTCCCGGTAATCCGTATTTGCT (site TATTATCCTAG) | 0.201 |
| AATTATGCATGGACCGGTTTTCCCGGTAATCCGTATTTGGC (site AATTATGCTAC) | 0.00687 |
| AATTATGCATGGACCGGTTTTCCCGGTAATCCGTATTTGGC (site AATTATGCTCC) | 0.0199 |
| AATTATGCATGGACCGGTTTTCCCGGTAATCCGTATTTGGC (site AATTATGCTGC) | 1.33 |

| Sequence | recombinant UMI read abundance (log10) |
| --- | --- |
| AATTATGCATGGACCGGTTTTCCCGGTAATCCGTATTTGGC (site AATTATGCTTC) | 0.332 |
| AATTCTTCATGGACCGGTTTTCCCGGTAATCCGTATTTGTA (site AATTCTTCTTA) | 1.04 |
| AATTTACCATGGACCGGTTTTCCCGGTAATCCGTATTTGGC (site AATTTACCTGC) | 0 |
| ACAAAGACATGGACCGGTTTTCCCGGTAATCCGTATTTGAG (site ACAAAGACTCT) | 2.49 |
| ACAAGTTCATGGACCGGTTTTCCCGGTAATCCGTATTTGTG (site ACAAGTTCTCA) | 2.42 |
| ACAATAACATGGACCGGTTTTCCCGGTAATCCGTATTTGCA (site ACAATAACTTG) | 2.65 |
| ACAATAACATGGACCGGTTTTCCCGGTAATCCGTATTTGCA (site ACAGTATCTTG) | 1.03 |
| ACAATATCATGGACCGGTTTTCCCGGTAATCCGTATTTGGA (site ACAATATCTTC) | 2.07 |
| ACAATATCATGGACCGGTTTTCCCGGTAATCCGTATTTGGA (site ACAGTATCTTG) | 0 |
| ACACACCCATGGACCGGTTTTCCCGGTAATCCGTATTTGAC (site ACACAACCTGT) | 0 |
| ACACACCCATGGACCGGTTTTCCCGGTAATCCGTATTTGAC (site ACACACCCTGT) | 0.957 |
| ACACACCCATGGACCGGTTTTCCCGGTAATCCGTATTTGAC (site ACACAGCCTGT) | 0 |
| ACACACCCATGGACCGGTTTTCCCGGTAATCCGTATTTGAC (site ACACATCCTGT) | 0.471 |
| ACACATACATGGACCGGTTTTCCCGGTAATCCGTATTTGAC (site ACACATACTGT) | 2.71 |
| ACACATACATGGACCGGTTTTCCCGGTAATCCGTATTTGAC (site ACACATCCTGT) | 0 |
| ACACATACATGGACCGGTTTTCCCGGTAATCCGTATTTGAC (site ACACATGCTGT) | 1.74 |
| ACACATACATGGACCGGTTTTCCCGGTAATCCGTATTTGAC (site ACACATTCTGT) | 0.554 |
| ACACATCCATGGACCGGTTTTCCCGGTAATCCGTATTTGCC (site ACACATCCTGA) | 1.25 |
| ACACATCCATGGACCGGTTTTCCCGGTAATCCGTATTTGCC (site ACACATCCTGC) | 0 |

| Sequence | recombinant UMI read abundance (log10) |
| --- | --- |
| ACACATCCATGGACCGGTTTTCCCGGTAATCCGTATTTGCC (site ACACATCCTGG) | 1.79 |
| ACACATCCATGGACCGGTTTTCCCGGTAATCCGTATTTGCC (site ACACATCCTGT) | 0 |
| ACACATCCATGGACCGGTTTTCCCGGTAATCCGTATTTGTC (site ACACATCCTGA) | 1.53 |
| ACACATCCATGGACCGGTTTTCCCGGTAATCCGTATTTGTC (site ACACATCCTGC) | 0.011 |
| ACACATCCATGGACCGGTTTTCCCGGTAATCCGTATTTGTC (site ACACATCCTGG) | 0 |
| ACACATCCATGGACCGGTTTTCCCGGTAATCCGTATTTGTC (site ACACATCCTGT) | 0.239 |
| ACACCTGCATGGACCGGTTTTCCCGGTAATCCGTATTTGGG (site ACACCTGCTCC) | 0.734 |
| ACACGAACATGGACCGGTTTTCCCGGTAATCCGTATTTGCC (site ACACGAACTGA) | 1.32 |
| ACACGAACATGGACCGGTTTTCCCGGTAATCCGTATTTGCC (site ACACGAACTGC) | 0 |
| ACACGAACATGGACCGGTTTTCCCGGTAATCCGTATTTGCC (site ACACGAACTGG) | 2.57 |
| ACACGAACATGGACCGGTTTTCCCGGTAATCCGTATTTGCC (site ACACGAACTGT) | 1.59 |
| ACACGAACATGGACCGGTTTTCCCGGTAATCCGTATTTGTT (site ACACGAACTAA) | 2.08 |
| ACACGAACATGGACCGGTTTTCCCGGTAATCCGTATTTGTT (site ACACGAACTCA) | 0.359 |
| ACACGAACATGGACCGGTTTTCCCGGTAATCCGTATTTGTT (site ACACGAACTGA) | 1.96 |
| ACACGAACATGGACCGGTTTTCCCGGTAATCCGTATTTGTT (site ACACGAACTTA) | 1.35 |
| ACACGGACATGGACCGGTTTTCCCGGTAATCCGTATTTGCT (site ACACGGACTAG) | 2.76 |
| ACACGTACATGGACCGGTTTTCCCGGTAATCCGTATTTGGG (site ACACGTACTCC) | 0.42 |
| ACACTATCATGGACCGGTTTTCCCGGTAATCCGTATTTGCG (site ACACTATCTCG) | 2.79 |
| ACACTATCATGGACCGGTTTTCCCGGTAATCCGTATTTGCG (site ACAGTATCTTG) | 0 |
